# In patent publication US7115629B2, “Carbamates derived from arylalkylamines” (Laboratorios S.A.L.V.A.T., S.A., priority 2000, dated 2006):
# Tests used:
# M2 and M3 receptors = conditions: background statement; compounds exhibit M3 antagonist activity; cited from earlier work
# human M3 receptors = target: T1, human M3 receptors (Homo sapiens, UniProt P20309); assay: Binding test to cloned human M3 muscarinic receptor ([3H]-NMS displacement, CHO-K1 membranes); conditions: membranes of CHO-K1 cells transfected with human M3; [3H]-NMS; mean of two independent experiments in duplicate; read-out: M3 (human M3 antagonist activity, binding affinity constant Ki)
# T1 construct: purchased Receptor Biology; host or cells: CHO-K1 cells transfected with the human receptor (membranes)
# T1 sequence (P20309 whole entry): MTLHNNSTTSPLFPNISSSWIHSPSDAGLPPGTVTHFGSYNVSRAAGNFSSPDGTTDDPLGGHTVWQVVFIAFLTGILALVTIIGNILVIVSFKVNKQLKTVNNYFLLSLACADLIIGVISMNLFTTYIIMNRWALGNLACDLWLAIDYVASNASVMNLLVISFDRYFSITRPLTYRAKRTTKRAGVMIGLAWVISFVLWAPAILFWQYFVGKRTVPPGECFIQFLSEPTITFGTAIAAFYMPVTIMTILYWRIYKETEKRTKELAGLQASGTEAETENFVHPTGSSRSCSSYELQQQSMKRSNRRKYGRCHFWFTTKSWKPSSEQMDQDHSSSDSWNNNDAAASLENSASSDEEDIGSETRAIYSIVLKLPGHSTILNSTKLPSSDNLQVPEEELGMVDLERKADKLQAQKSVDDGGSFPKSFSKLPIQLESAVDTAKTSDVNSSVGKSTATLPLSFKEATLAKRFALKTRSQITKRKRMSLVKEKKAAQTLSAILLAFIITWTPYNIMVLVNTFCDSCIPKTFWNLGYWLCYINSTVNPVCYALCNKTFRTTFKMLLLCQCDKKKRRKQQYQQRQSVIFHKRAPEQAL
# Experimental: (§1) Membranes from CHO—K1 cells transfected with human M2 or M3 receptors (Receptor Biology) were used. The summarised experimental procedure for both receptors was the following: membranes (15–20 μg) were incubated with [^3H]-NMS (0.3–0.5 nM) for 60 min at 25° C., in presence or absence of the antagonists. Incubation was carried out in 96 wells polystyrene microplates in a total incubation volume of 0.2 mL of PBS pH 7.4. Non specific binding was determined in parallel assays in presence of atropine (5 μM). Samples were filtered through type GF/C glass fibre, preincubated with PEI 0.3%. Filters were washed 3–4 times with 50 mM Tris-HCl, 0.9% NaCl, pH 7.4 at 4° C., and dried at 50° C. for 45 min. Filter bound radioactivity was quantified by liquid scintillation counting.
# (§2) For the calculation of the inhibition constant (Ki), displacement curves were analysed by non-linear regression (GraphPad Prism). Dissociation constant (KD) of [^3H]-NMS for each receptor was obtained through the saturation curves obtained in the same conditions as the experiments carried out with the antagonists.
# human M2 receptors = target: T2, human M2 receptors (Homo sapiens, UniProt P08172); assay: Binding test to cloned human M2 muscarinic receptor ([3H]-NMS displacement, CHO-K1 membranes), reported as M2/M3 ratio; conditions: value greater than 1 indicates selectivity for the M3 receptor
# T2 construct: purchased Receptor Biology; host or cells: CHO-K1 cells transfected with the human receptor (membranes)
# T2 sequence (P08172 1-466): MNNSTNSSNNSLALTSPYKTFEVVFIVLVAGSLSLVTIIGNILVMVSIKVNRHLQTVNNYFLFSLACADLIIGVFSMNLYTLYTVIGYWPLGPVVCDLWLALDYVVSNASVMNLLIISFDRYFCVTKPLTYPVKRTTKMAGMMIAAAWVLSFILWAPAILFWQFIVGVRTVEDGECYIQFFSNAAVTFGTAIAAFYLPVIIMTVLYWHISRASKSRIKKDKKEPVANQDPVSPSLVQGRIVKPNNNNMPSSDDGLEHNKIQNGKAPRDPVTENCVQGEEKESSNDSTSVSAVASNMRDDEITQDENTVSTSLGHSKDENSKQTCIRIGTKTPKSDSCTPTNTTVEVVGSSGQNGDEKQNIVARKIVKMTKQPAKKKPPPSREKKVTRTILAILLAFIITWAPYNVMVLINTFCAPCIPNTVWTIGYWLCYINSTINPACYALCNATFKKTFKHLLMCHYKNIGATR
# Experimental: as §1, §2
SMILES,affinity towards the M2 receptor (M2 and M3 receptors),Ki (human M3 receptors),M2/M3 (ratio between M2 and M3 receptor affinities) (human M2 receptors)
"NC(=O)C(c1ccccc1)(c1ccccc1)[C@@H]1CCN(CCc2ccc3c(c2)CCO3)C1 [DARIFENACIN, darifenacin]",without any significant affinity,,
O=C(OC1CN2CCC1CC2)N(CC1CCC1)c1ccccc1 (stereo not shown) [Example 55],,0.35 nM,110
Cc1cccc(N(CC2CCCC2)C(=O)OC2CN3CCC2CC3)c1 (stereo not shown) [Example 56],,0.75 nM,37
O=C(OC1CN2CCC1CC2)N(CC1CCCCC1)c1ccccc1F (stereo not shown) [Example 57],,0.025 nM,300
Cc1cccc(N(CC2CCC(C)CC2)C(=O)OC2CN3CCC2CC3)c1 (stereo not shown) [Example 58],,0.088 nM,93
C=C(C)C1CCC(CN(C(=O)OC2CN3CCC2CC3)c2cccc(C)c2)CC1 (stereo not shown) [Example 59],,0.77 nM,90
O=C(OC1CN2CCC1CC2)N(CC1=CCCCC1)c1ccccc1F (stereo not shown) [Example 60],,0.02 nM,48
O=C(OC1CN2CCC1CC2)N(CC1CC=CCC1)c1cccc(Cl)c1 (stereo not shown) [Example 61],,0.35 nM,74
O=C(OC1CN2CCC1CC2)N(CC1CC2CCC1C2)c1cccc(F)c1 (stereo not shown) [Example 62],,0.22 nM,115
O=C(OC1CN2CCC1CC2)N(CC1CC2C=CC1C2)c1ccccc1 (stereo not shown) [Example 63],,0.06 nM,64
C[N+]12CCC(CC1)C(OC(=O)N(Cc1ccc(F)cc1)c1ccccc1)C2.[I-] (stereo not shown) [Example 64],,3.6 nM,30
Cc1ccccc1N(Cc1ccccc1)C(=O)OC1C[N+]2(C)CCC1CC2.[I-] (stereo not shown) [Example 65],,14.3 nM,13
Cc1ccccc1N(Cc1cc(F)c(F)cc1F)C(=O)OC1C[N+]2(C)CCC1CC2.[I-] (stereo not shown) [Example 66],,4.7 nM,18
Cc1cccc(N(Cc2ccc(F)cc2)C(=O)OC2C[N+]3(C)CCC2CC3)c1.[I-] (stereo not shown) [Example 67],,3.8 nM,19
C[N+]12CCC(CC1)C(OC(=O)N(Cc1ccccc1)c1ccccc1F)C2.[I-] (stereo not shown) [Example 68],,9.9 nM,5
C[N+]12CCC(CC1)C(OC(=O)N(CC1CCCCC1)c1ccccc1F)C2.[I-] (stereo not shown) [Example 69],,14.1 nM,8
"O=C(OC1CN2CCC1CC2)N1CCc2ccccc2[C@@H]1c1ccccc1 (stereo partly shown) [YM-905, reference compound]",without any significant affinity,1.72 nM,24
